Here are results for 18 compounds from patent publication US5593970A, “Heterocyclic anthracycline analogs” (priority 1994, dated 1997).

Counter-ions that a name gives are not always drawn. Like-named read-outs stand apart in the source and are kept apart here.

What all share (experiment): Microculture tetrazolium assay
Holding throughout (type): cell-based

Assay [1] has as its system SKOV3.
The subject of assay [2] is SKVLB. The settings on record: for VLB/OV3: IC50 ratio SKVLB/SKOV3; for IC50: SKVLB.
In assay [3] the test system is T47D.
The subject of assay [4] is LOX.
In assay [5] the test system is HT29.
Where [6] appears, read: Homo sapiens, SK-OV-3, SKOV3, read-out: IC50.
[7] abbreviates: Homo sapiens, HT-29, HT29, read-out: IC50.

With `CC(=O)C1CC2=C(C(=O)c3cc4ccccc4c(O)c3C2=O)C(OC[C@@H]2COC(C)(C)O2)O1` (some centres unmarked) [BCH-1661], the IC50 amounted to 2820 nM in assay [1] (setting [6]); 2660 nM in assay [2] (read-out: IC50); 5120 nM in assay [3] (Homo sapiens, read-out: IC50); 3590 nM in assay [4] (read-out: IC50); 3040 nM in assay [5] (setting [7]). For the same compound, the VLB/OV3 in assay [2] is on record as 0.94.

With `COC[C@@H]1CC2=C(C(=O)c3cc4ccccc4c(O)c3C2=O)[C@@H](O[C@H]2C[C@H](NC(=O)C(F)(F)F)[C@H](O)[C@H](C)O2)O1` [BCH-1694, (1'S,1R,3S)-5,12-dioxo-6-hydroxy-3-methoxymethyl-1-(2',3',6'-trideoxy-3'-trifluoroacetamido-L-lyxohexopyranose)-3,4,5,12-tetrahydroanthraceno-[2,3-C]pyran], the IC50 in assay [1] (setting [6]) came to 2990 nM; in assay [2] (read-out: IC50) it was 9540 nM; in assay [3] (Homo sapiens, read-out: IC50), 4490 nM; in assay [4] (read-out: IC50) it was 3580 nM; in assay [5] (setting [7]) it was 4310 nM. Also, in assay [2], the VLB/OV3 is 3.19.

Take `COC[C@@H]1CC2=C(C(=O)c3cc4ccccc4c(O)c3C2=O)[C@@H](O[C@H]2C[C@H](N)[C@H](O)[C@H](C)O2)O1` [BCH-1695, (1'S ,1R,3S)-5,12-dioxo-6-hydroxy-3-methoxymethyl-1-(2',3',6'trideoxy-3'-amino-L-lyxohexopyranose)-3,4,5,12-tetrahydroanthraceno-[2,3-c]pyran]: the IC50 in assay [1] (Homo sapiens, SK-OV-3, SKOV3) was 5740 nM; in assay [2] (read-out: IC50), 25600 nM; in assay [3] (Homo sapiens, read-out: IC50), 12800 nM; in assay [4] (read-out: IC50), 5230 nM; in assay [5] (setting [7]), 14800 nM. Moreover, in assay [2], the VLB/OV3 is on record as 4.46.

Consider `COC[C@H]1CC2=C(C(=O)c3cc4ccccc4c(O)c3C2=O)[C@H](O[C@H]2C[C@H](NC(=O)C(F)(F)F)[C@H](O)[C@H](C)O2)O1` [BCH-1696, (1'S,1S,3R)-5,12-dioxo-6-hydroxy-3-methoxymethyl-1-(2',3',6'-trideoxy-3'-trifluoroacetamido-L-lyxohexopyranose)-3,4,5,12-tetrahydroanthraceno-[2,3-C]pyran], for which the IC50 came to 1100 nM in assay [1] (setting [6]); 2710 nM in assay [2] (read-out: IC50); 1210 nM in assay [3] (Homo sapiens, read-out: IC50); 1100 nM in assay [4] (read-out: IC50); 823 nM in assay [5] (setting [7]). In assay [2], the VLB/OV3 is 2.46.

In the case of `COCC1(COC)CC2=C(C(=O)c3cc4ccccc4c(O)c3C2=O)[C@H](O[C@H]2C[C@H](NC(=O)C(F)(F)F)[C@H](O)[C@H](C)O2)O1` [BCH-1698, (1'S,1S)-5,12-dioxo-6-hydroxy-3,3-bismethoxymethyl-1-(2',3',6'-trideoxy-3'-trifluoroacetamido-L-lyxohexopyranose)-3,4,5,12-tetrahydroanthraceno-[2,3-C]pyran], the IC50 in assay [1] (setting [6]) worked out at 865 nM; in assay [2] (read-out: IC50) it was 5820 nM; in assay [3] (Homo sapiens, read-out: IC50), 727 nM; in assay [4] (read-out: IC50), 398 nM; in assay [5] (setting [7]), 1120 nM. The VLB/OV3 in assay [2] is 6.73.

As for `CC(=O)[C@@H]1CC2=C(C(=O)c3cc4ccccc4c(O)c3C2=O)[C@@H](O[C@@H]2O[C@@H](C)[C@@H](O)[C@@H](O)C2I)O1` (some centres unmarked) [BCH-1990], the IC50 in assay [1] (setting [6]) turned out to be 2100 nM; in assay [2], 5540 nM; in assay [3] (Homo sapiens, read-out: IC50) it was 3880 nM; in assay [4] (read-out: IC50), 3010 nM; in assay [5] (setting [7]) it was 1100 nM. Also, in assay [2], the VLB/OV3 was 2.64.

For the compound `COCC1(COC)CC2=C(C(=O)c3cc4ccccc4c(O)c3C2=O)[C@H](O[C@H]2C[C@H](N)[C@H](O)[C@H](C)O2)O1` [BCH-1991, (1'S,1S)-5,12-dioxo-6-hydroxy-3,3-bis-methoxymethyl-1-(2',3',6'-trideoxy-3'-amino-L-lyxohexopyranose)-3,4,5,12-tetrahydroanthraceno-[2,3-c]-pyran hydrochloride], the IC50 in assay [1] (setting [6]) turned out to be 1470 nM; in assay [2], 5540 nM; in assay [3] (Homo sapiens, read-out: IC50), 918 nM; in assay [4] (read-out: IC50) it was 1290 nM; in assay [5] (setting [7]), 1720 nM. Moreover, in assay [2], the VLB/OV3 was 3.77.

As to `CC(=O)[C@@H]1CC2=C(C(=O)c3cc4ccccc4c(O)c3C2=O)[C@H](OC[C@@H]2COC(C)(C)O2)S1` [BCH-1993], the IC50 in assay [1] (SKOV3, read-out: IC50) came out at 4190 nM; in assay [2] (read-out: IC50) it was 13000 nM; in assay [3] (read-out: IC50), 9810 nM; in assay [4] (read-out: IC50), 4020 nM; in assay [5] (HT29, read-out: IC50) it was 3470 nM. Also, the VLB/OV3 in assay [2] is reported as 3.10.

Take `CC(=O)[C@H]1CC2=C(C(=O)c3cc4ccccc4c(O)c3C2=O)[C@@H](OC[C@@H]2COC(C)(C)O2)S1` [BCH-1994]: the IC50 in assay [1] (SKOV3, read-out: IC50) worked out at 2740 nM; in assay [2] (read-out: IC50), 8620 nM; in assay [3] (read-out: IC50) it was 4410 nM; in assay [4] (read-out: IC50), 1910 nM; in assay [5] (HT29, read-out: IC50) it was 1960 nM. In addition, the VLB/OV3 in assay [2] is recorded as 3.15.

As for `C[C@@H]1O[C@@H](O[C@@H]2O[C@@H]([C@H](O)CO)CC3=C2C(=O)c2cc4ccccc4c(O)c2C3=O)C[C@H](NC(=O)C(F)(F)F)[C@@H]1O` [BCH-1997], the concentration for half-maximal inhibition (IC50) in assay [1] (setting [6]) was 1560 nM; in assay [2] (read-out: IC50), 6720 nM; in assay [3] (Homo sapiens, read-out: IC50), 2140 nM; in assay [4] (read-out: IC50), 2300 nM; in assay [5] (setting [7]) it was 2690 nM. Moreover, the VLB/OV3 in assay [2] is 4.31.

Turning to `CC(=O)[C@@H]1Cc2c(O)c3c(c(O)c2[C@@H](O[C@H]2O[C@H](CO)[C@@H](O)[C@H](O)[C@H]2NC(=O)N(CCCl)N=O)O1)C(=O)c1ccccc1C3=O` [BCH-1999, (1'R, 1R,3S)-3-aceto-5,12-dihydroxy-1(2-deoxy-2-chloroethylnitrosoureido D-glucopyranose)-6,11-dioxo-3,4,6,11-tetrahydro-1H-anthra[2,3-c]pyran], the IC50 in assay [1] (Homo sapiens, SK-OV-3, SKOV3) was less than 7740 nM; in assay [2] it was 1000 nM; in assay [3] (Homo sapiens), 20000 nM; in assay [4], 4970 nM; in assay [5] (Homo sapiens, HT-29, HT29), 8060 nM.

With `C[C@@H]1O[C@@H](O[C@@H]2O[C@@H](S(=O)(=O)c3ccccc3)CC3=C2C(=O)c2cc4ccccc4c(O)c2C3=O)C[C@H](NC(=O)C(F)(F)F)[C@@H]1O` [BCH-2001], the IC50 in assay [1] (setting [6]) was found to be 3060 nM; in assay [2] (read-out: IC50) it was 5820 nM; in assay [3] (Homo sapiens, read-out: IC50), 2590 nM; in assay [4] (read-out: IC50) it was 2490 nM; in assay [5] (setting [7]), 1380 nM. Further, the VLB/OV3 in assay [2] came to 1.90.

For `C[C@@H]1O[C@@H](O[C@@H]2OC=CC3=C2C(=O)c2cc4ccccc4c(O)c2C3=O)C[C@H](NC(=O)C(F)(F)F)[C@@H]1O` [BCH-2002], the IC50 in assay [1] (setting [6]) is 1240 nM; in assay [2] (read-out: IC50) it was 3570 nM; in assay [3] (Homo sapiens, read-out: IC50) it was 1460 nM; in assay [4] (read-out: IC50), 1750 nM; in assay [5] (setting [7]) it was 980 nM. In addition, the VLB/OV3 in assay [2] was found to be 2.88.

With `C=CC[C@H]1CC2=C(C(=O)c3cc4ccccc4c(O)c3C2=O)[C@H](O[C@H]2C[C@H](N)[C@H](O)[C@H](C)O2)O1` [BCH-2006, (1'S,1S,3S)-3-(6-hydroxy-1-(2',3',6'-trideoxy-3'-amino-4'-hydroxy-L-lyxohexopyranose)-5,12-dioxo-3,4,5,12-tetrahydroanthraceno-[2,3-c]pyran-3-yl)propene hydrochloride], the IC50 was 882 nM in assay [1] (setting [6]); 3730 nM in assay [2] (read-out: IC50); 1920 nM in assay [3] (Homo sapiens, read-out: IC50); 484 nM in assay [4] (read-out: IC50); 410 nM in assay [5] (setting [7]). The VLB/OV3 in assay [2] came to 4.23.

For `C[C@@H]1O[C@@H](O[C@H]2O[C@H](C#N)CC3=C2C(=O)c2cc4ccccc4c(O)c2C3=O)C[C@H](NC(=O)C(F)(F)F)[C@@H]1O` [BCH-2007, (1'S,1R,3S)-3-(6-hydroxy-1-(2',3',6'-trideoxy-3'-trifluoroacetamido-4'-hydroxy-L-lyxohexopyranose)-5,12-dioxo-3,4,5,12-tetrahydroanthraceno-[2,3-c]pyran-3-yl)nitrile], the IC50 in assay [1] (setting [6]) came to 433 nM; in assay [2] (read-out: IC50) it was 2790 nM; in assay [3] (Homo sapiens, read-out: IC50), 506 nM; in assay [4] (read-out: IC50) it was 379 nM; in assay [5] (setting [7]), 148 nM. Further, the VLB/OV3 in assay [2] is given as 6.44.

On to `C[C@@H]1O[C@@H](O[C@@H]2O[C@@H](C#N)CC3=C2C(=O)c2cc4ccccc4c(O)c2C3=O)C[C@H](NC(=O)C(F)(F)F)[C@@H]1O` [BCH-2008, (1'S,1S,3R)-3-(6-hydroxy-1-(2',3',6'-trideoxy-3'-trifluoroacetamido-4'-hydroxy-L-lyxohexopyranose)-5,12-dioxo-3,4,5,12-tetrahydroanthraceno-[2,3-c]pyran-3-yl)nitrile], for which the IC50 stood at 332 nM in assay [1] (setting [6]); 2180 nM in assay [2] (read-out: IC50); 387 nM in assay [3] (Homo sapiens, read-out: IC50); 154 nM in assay [4] (read-out: IC50); 62.5 nM in assay [5] (setting [7]). The VLB/OV3 in assay [2] is 6.57.

On to `C[C@@H]1O[C@@H](O[C@H]2O[C@H](c3ccccc3)CC3=C2C(=O)c2cc4ccccc4c(O)c2C3=O)C[C@H](NC(=O)C(F)(F)F)[C@@H]1O` [BCH-2010, (1S, 1R, 3S)-3-(6-hydroxy-1-(2',3',6'-trideoxy-3'-trifluoroacetamido-4'-hydroxy-L-lyxohexopyranose)-5,12-dioxo-3,4,5,12-tetrahydroanthraceno-[2,3-c]pyran-3-yl)benzene], for which the IC50 in assay [1] (setting [6]) was found to be 12700 nM; in assay [2] (read-out: IC50), 28500 nM; in assay [3] (Homo sapiens, read-out: IC50), 13500 nM; in assay [4] (read-out: IC50), 9250 nM; in assay [5] (setting [7]), 10700 nM. Besides, the VLB/OV3 in assay [2] is recorded as 2.24.

As to `C[C@@H]1O[C@@H](O[C@H]2O[C@H](c3ccccc3)CC3=C2C(=O)c2cc4ccccc4c(O)c2C3=O)C[C@H](N)[C@@H]1O` [BCH-2012, (1'S,1R,3S)-3-(6-hydroxy-1-(2',3',6'-trideoxy-3'-amino-4'-hydroxy-L-lyxohexopyranose)-5,12-dioxo-3,4,5,12-tetrahydroanthraceno-[2,3-c]pyran-3-yl)benzene hydrochloride], the IC50 came to 2060 nM in assay [1] (setting [6]); 4030 nM in assay [2] (read-out: IC50); 954 nM in assay [3] (Homo sapiens, read-out: IC50); 736 nM in assay [4] (read-out: IC50); 565 nM in assay [5] (setting [7]). For the same compound, the VLB/OV3 in assay [2] came to 1.96.

What is called IC50 is the concentration that gives 50% inhibition.
